pEC50: −log10 of the molar value.
Target: T1, human recombinant mGluR5 (Homo sapiens, UniProt P41594)
T1 construct: expressed in transfected cells; host or cells: HEK 293 cell line cultured with tetracycline, hygromycin and geneticin; tetracycline removed 3-7 days before the assay
Test: positive modulation of mGluR5, calcium based FLIPR assay in HEK 293 cells
Conditions: HEK 293 cell line expressing human recombinant mGluR5; EC50 of the modulation of the glutamate response (glutamate approx. 5% basal stimulation); peak height of Ca release fluorescence signal
Description: The positive modulation of mGluR5 is measured in a HEK 293 cell line expressing human recombinant mGluR5 and is detected with calcium based FLIPR assay. The cells are cultured with DMEM supplemented with 10% FCS, 2 μg/mL tetracycline, 100 μg/mL hygromycin and 500 μg/mL gneticin. The cell culture media is exchanged for tetracycline-free cell culture media 3-7 days before the assay. One day before the assay the cell culture medium is exchanged to DMEM without glutamine and phenol red and supplemented with 10% FCS, 100 μg/mL hygromycin and 500 μg/mL geneticin. On the assay day, the medium of the subconfluent cultures is removed and the cells are detached by addition of 2.5 ml EDTA (0.02%) per 175 cm2 culture flask for 1 minute. The cells are resuspend in Ringer solution (140 mM NaCl, 5 mM KCl, 2.5 mM CaCl2, 1.5 mM MgCl2, 5 mM Glucose, 10 mM Hepes; adjusted to pH 7.4 with NaOH), pooled and Ringer solution added to adjust the volume to 50 mL. The cell suspension is centrifuged for […] at 1500 U/min (425 g). The supernatant is removed and the cells washed a second time with 50 ml fresh Ringer solution and centrifuged again as before. The supernatant is again removed and the pellet resuspended in Ringer solution to 1,000,000 cells/ml (1×10^6 cells/mL). The cells are plated onto BD BioCoat Poly-D-Lysine 384 well plates (20.000 cells/well; 20 μl/well). The lid covered plates are then incubated until use at 37° C./10% CO2. For dye loading, 20 μl of Calcium-4 assay kit solution (prepared according to the manufacturer's description in Ringer solution) are added to the cells and the plates are incubated for 80 min 37° C. and then 10 min at room temperature.
Controls, Compound Dilution and Assay Execution:
Each assay plate contained wells with “high” and “low” controls:
Low controls 1% DMSO/ringer solution+basal glutamate activation (defined as 100% CTL).
High controls 10 μM CDPPB+basal glutamate activation (defined as 200% CTL).
Test compounds are dissolved and diluted in DMSO to 100-fold the desired concentrations. In a second step, the compounds are diluted in Ringer solution such that the compounds are 4-fold more concentrated than the desired final assay concentration. The final DMSO concentration was 1%.
20 μl of each compound solution are then transferred to the assay plate and the Ca2+ kinetic is measured to determine any intrinsic compound activity. After 5 min incubation in the FLIPR device, the second stimulation with 20 μl of glutamate in Ringer solution (glutamate concentration adjusted to approximately 5% basal stimulation of the maximal possible glutamate effect) is added and the kinetic Ca2+ response of the wells was measured for the modulation effect.
The peak height of the Ca release related fluorescence signal (9-66) is used for the EC50. The EC50 of the modulation is calculated over a nonlinear regression with GraphPad Prism (Table 1).

T1 sequence (P41594 21-1212): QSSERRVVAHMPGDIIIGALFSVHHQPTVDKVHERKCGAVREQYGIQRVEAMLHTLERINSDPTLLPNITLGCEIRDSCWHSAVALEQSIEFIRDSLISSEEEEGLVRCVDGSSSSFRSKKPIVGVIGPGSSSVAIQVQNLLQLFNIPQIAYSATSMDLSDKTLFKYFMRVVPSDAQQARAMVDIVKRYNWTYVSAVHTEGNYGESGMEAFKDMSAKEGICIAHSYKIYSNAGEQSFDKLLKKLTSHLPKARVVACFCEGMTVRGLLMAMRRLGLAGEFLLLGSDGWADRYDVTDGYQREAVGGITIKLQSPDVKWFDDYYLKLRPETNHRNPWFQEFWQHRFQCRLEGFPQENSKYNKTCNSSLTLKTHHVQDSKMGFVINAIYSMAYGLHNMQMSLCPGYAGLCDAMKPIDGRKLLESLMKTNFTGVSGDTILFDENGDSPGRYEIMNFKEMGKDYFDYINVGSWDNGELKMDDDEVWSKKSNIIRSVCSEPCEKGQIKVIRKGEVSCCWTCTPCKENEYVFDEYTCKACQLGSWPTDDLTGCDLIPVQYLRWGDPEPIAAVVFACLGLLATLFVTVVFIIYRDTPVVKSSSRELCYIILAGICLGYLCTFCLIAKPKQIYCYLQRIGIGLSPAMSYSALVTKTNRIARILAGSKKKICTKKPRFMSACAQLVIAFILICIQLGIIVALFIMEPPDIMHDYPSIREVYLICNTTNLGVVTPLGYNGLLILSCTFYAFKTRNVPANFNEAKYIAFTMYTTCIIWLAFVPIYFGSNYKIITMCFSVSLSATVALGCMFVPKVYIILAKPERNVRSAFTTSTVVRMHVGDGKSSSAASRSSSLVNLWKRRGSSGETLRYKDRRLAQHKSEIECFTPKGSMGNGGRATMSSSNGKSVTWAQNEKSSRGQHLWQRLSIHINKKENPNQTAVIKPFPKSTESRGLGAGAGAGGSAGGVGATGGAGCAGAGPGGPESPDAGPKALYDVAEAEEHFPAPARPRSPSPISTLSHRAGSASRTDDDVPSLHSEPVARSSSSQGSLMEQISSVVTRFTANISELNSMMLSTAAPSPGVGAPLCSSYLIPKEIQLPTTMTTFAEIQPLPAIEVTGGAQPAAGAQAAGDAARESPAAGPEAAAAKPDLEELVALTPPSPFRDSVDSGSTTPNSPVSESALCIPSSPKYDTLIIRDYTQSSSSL

SMILES | pEC50
O=C(Cn1nc(-c2ccc(F)cc2)nc1-c1ccc(F)cc1)N1CCN(c2ccnc(F)c2)CC1 [Example 07.01.05.] | 6.40
N#Cc1cccnc1N1CCN(C(=O)Cn2nc(-c3ccc(F)cc3)nc2-c2ccc(F)cc2)CC1 [Example 07.02.01., 2-(4-(2-(3,5-Bis-(4-fluoro-phenyl)-(1,2,4)triazol-1-yl)-acetyl)-piperazin-1-yl)-nicotinonitrile] | 6.72
O=C(Cn1nc(-c2ccc(F)cc2)nc1-c1ccc(F)cc1)N1CCN(c2ncccc2C(F)(F)F)CC1 [Example 07.02.02.] | 6.32
COc1cccc(N2CCN(C(=O)Cn3nc(-c4ccc(F)cc4)nc3-c3ccc(F)cc3)CC2)n1 [Example 07.02.03.] | 6.66
Cc1cccnc1N1CCN(C(=O)Cn2nc(-c3ccc(F)cc3)nc2-c2ccc(F)cc2)CC1 [Example 07.02.04.] | 5.97
O=C(Cn1nc(-c2ccc(F)cc2)nc1-c1ccc(F)cc1)N1CCN(c2cc(C(F)(F)F)ccn2)CC1 [Example 07.02.07.] | 6.66
COc1ccc(-c2nc(-c3ccc(OC)cc3)n(CC(=O)N3CCN(c4ccc(C)cn4)CC3)n2)cc1 [Example 07.02.11.] | 6.43
COc1ccc(-c2nc(-c3ccc(OC)cc3)n(CC(=O)N3CCN(c4ccc(Cl)cn4)CC3)n2)cc1 [Example 07.02.12.] | 6.48
COc1ccc(-c2nc(-c3ccc(OC)cc3)n(CC(=O)N3CCN(c4ccc(C#N)cn4)CC3)n2)cc1 [Example 07.02.13.] | 5.89
COc1ccc(-c2nc(-c3ccc(OC)cc3)n(CC(=O)N3CCN(c4ccc(C(F)(F)F)cn4)CC3)n2)cc1 [Example 07.02.14.] | 5.98
COc1ccc(-c2nc(-c3ccc(OC)cc3)n(CC(=O)N3CCN(c4cccc(OC)n4)CC3)n2)cc1 [Example 07.02.15.] | 6.17
COc1ccc(-c2nc(-c3ccc(OC)cc3)n(CC(=O)N3CCN(c4ncccc4C#N)CC3)n2)cc1 [Example 07.02.16.] | 6.58
COc1ccc(-c2nc(-c3ccc(OC)cc3)n(CC(=O)N3CCN(c4ccc(C(N)=O)cn4)CC3)n2)cc1 [Example 07.02.17.] | 6.19
COc1ccc(-c2nc(-c3ccccc3)n(CC(=O)N3CCN(c4ccccn4)CC3)n2)cc1OC [Example 07.02.18.] | 6.64
COc1ccc(-c2nc(-c3ccccc3)n(CC(=O)N3CCN(c4ncccc4C#N)CC3)n2)cc1OC [Example 07.02.19.] | 6.31
COc1ccc(-c2nc(-c3ccccc3)n(CC(=O)N3CCN(c4ccc(C)cn4)CC3)n2)cc1OC [Example 07.02.21.] | 6.35

SMILES | pEC50
COc1ccc(-c2nc(-c3ccccc3)n(CC(=O)N3CCN(c4ncccc4C(F)(F)F)CC3)n2)cc1OC [Example 07.02.23.] | 5.72
COc1ccc(-c2nc(C3CCCCC3)n(CC(=O)N3CCN(c4ncccn4)CC3)n2)cc1 [Example 07.02.24.] | 6.64
COc1ccc(-c2nc(C3CCCCC3)n(CC(=O)N3CCN(c4ccccn4)CC3)n2)cc1 [Example 07.02.25.] | 6.37
COc1ccc(-c2nc(C3CCCCC3)n(CC(=O)N3CCN(c4cc(C)ccn4)CC3)n2)cc1 [Example 07.02.26.] | 6.60
O=C(Cn1nc(-c2ccccc2)nc1-c1ccccc1)N1CCN(c2ccccn2)CC1 [Example 07.02.27.] | 6.45
Cc1ccnc(N2CCN(C(=O)Cn3nc(-c4ccccc4)nc3-c3ccccc3)CC2)c1 [Example 07.02.28.] | 6.61
CCOC(=O)c1cccc(N2CCN(C(=O)Cn3nc(-c4ccc(F)cc4)nc3-c3ccc(F)cc3)CC2)c1 [Example 07.03.02.] | 5.89
O=C(Cn1nc(-c2ccc(F)cc2)nc1-c1ccc(F)cc1)N1CCN(c2nccc(C(F)(F)F)n2)CC1 [Example 07.03.03.] | 6.23
O=C(Cn1nc(-c2ccc(F)cc2)nc1-c1ccc(F)cc1)N1CCN(c2cccc(F)c2)CC1 [Example 07.03.05.] | 6.33
N#Cc1cccc(N2CCN(C(=O)Cn3nc(-c4ccc(F)cc4)nc3-c3ccc(F)cc3)CC2)c1 [Example 07.03.06.] | 6.46
Cc1cc(C)nc(N2CCN(C(=O)Cn3nc(-c4ccc(F)cc4)nc3-c3ccc(F)cc3)CC2)n1 [Example 07.03.07.] | 6.21
CN(C)c1cncc(N2CCN(C(=O)Cn3nc(-c4ccc(F)cc4)nc3-c3ccc(F)cc3)CC2)n1 [Example 07.03.11.] | 6.55
COc1cc(OC)nc(N2CCN(C(=O)Cn3nc(-c4ccc(F)cc4)nc3-c3ccc(F)cc3)CC2)n1 [Example 07.03.13.] | 6.65
Cc1cc(C#N)nc(N2CCN(C(=O)Cn3nc(-c4ccc(F)cc4)nc3-c3ccc(F)cc3)CC2)n1 [Example 07.03.15.] | 6.24
CN(C)c1ccnc(N2CCN(C(=O)Cn3nc(-c4ccc(F)cc4)nc3-c3ccc(F)cc3)CC2)c1 [Example 07.03.17.] | 6.22
COc1cncc(N2CCN(C(=O)Cn3nc(-c4ccc(F)cc4)nc3-c3ccc(F)cc3)CC2)n1 [Example 07.03.18.] | 6.75

Stronger by pEC50, values ahead:

pEC50 | SMILES
7.62 | O=C(Cn1nc(-c2ccc(F)cc2)nc1-c1ccc(F)cc1)N1CCN(c2ncccn2)CC1 [Example 07.01.01., 2-(3,5-Bis-(4-fluoro-phenyl)-(1,2,4)triazol-1-yl)-1-(4-pyrimidin-2-yl-piperazin-1-yl)-ethanone]
7.25 | O=C(Cn1nc(-c2ccc(F)cc2)nc1-c1ccc(F)cc1)N1CCN(c2ccccn2)CC1 [Example 07.01.02.]
7.10 | O=C(Cn1nc(-c2ccc(F)cc2)nc1-c1ccc(F)cc1)N1CCN(c2cc(Br)ccn2)CC1 [Example 07.01.03.]
7.09 | O=C(Cn1nc(-c2ccc(F)cc2)nc1-c1ccc(F)cc1)N1CCN(c2cc(F)ccn2)CC1 [Example 07.01.04.]
7.89 | Cc1cc(-c2nc(-c3ccccc3)n(CC(=O)N3CCN(c4ncccn4)CC3)n2)ccc1Br [Example 07.01.06.]
7.18 | Cc1cc(-c2nc(-c3ccccc3)nn2CC(=O)N2CCN(c3ncccn3)CC2)ccc1Br [Example 07.01.07.]
7.36 | Cc1ccnc(N2CCN(C(=O)Cn3nc(-c4ccc(F)cc4)nc3-c3ccc(F)cc3)CC2)c1 [Example 07.02.05.]
6.81 | Cc1ccc(N2CCN(C(=O)Cn3nc(-c4ccc(F)cc4)nc3-c3ccc(F)cc3)CC2)nc1 [Example 07.02.06.]
7.44 | N#Cc1ccnc(N2CCN(C(=O)Cn3nc(-c4ccc(F)cc4)nc3-c3ccc(F)cc3)CC2)c1 [Example 07.02.08.]
7.21 | COc1ccc(-c2nc(-c3ccc(OC)cc3)n(CC(=O)N3CCN(c4ncccn4)CC3)n2)cc1 [Example 07.02.09.]
7.08 | COc1ccc(-c2nc(-c3ccc(OC)cc3)n(CC(=O)N3CCN(c4ccccn4)CC3)n2)cc1 [Example 07.02.10.]
6.79 | COc1ccc(-c2nc(-c3ccccc3)n(CC(=O)N3CCN(c4cc(C)ccn4)CC3)n2)cc1OC [Example 07.02.20.]
7.06 | COc1ccnc(N2CCN(C(=O)Cn3nc(-c4ccc(F)cc4)nc3-c3ccc(F)cc3)CC2)c1 [Example 07.03.01., 2-(3,5-Bis-(4-fluoro-phenyl)-(1,2,4)triazol-1-yl)-1-(4-(4-methoxy-pyridin-2-yl)-piperazin-1-yl)-ethanone]
7.30 | O=C(Cn1nc(-c2ccc(F)cc2)nc1-c1ccc(F)cc1)N1CCN(c2ncc(Br)cn2)CC1 [Example 07.03.04.]
6.91 | N#Cc1ccnc(N2CCN(C(=O)Cn3nc(-c4ccc(F)cc4)nc3-c3ccc(F)cc3)CC2)n1 [Example 07.03.08.]
6.92 | O=C(Cn1nc(-c2ccc(F)cc2)nc1-c1ccc(F)cc1)N1CCN(c2cc(Cl)ncn2)CC1 [Example 07.03.09.]
7.17 | COc1ccnc(N2CCN(C(=O)Cn3nc(-c4ccc(F)cc4)nc3-c3ccc(F)cc3)CC2)n1 [Example 07.03.10.]
6.87 | O=C(Cn1nc(-c2ccc(F)cc2)nc1-c1ccc(F)cc1)N1CCN(c2cccnn2)CC1 [Example 07.03.12.]
7.07 | O=C(Cn1nc(-c2ccc(F)cc2)nc1-c1ccc(F)cc1)N1CCN(c2ncncn2)CC1 [Example 07.03.14.]
7.18 | CN(C)c1ccnc(N2CCN(C(=O)Cn3nc(-c4ccc(F)cc4)nc3-c3ccc(F)cc3)CC2)n1 [Example 07.03.16.]
